For one substance, IC50 results are on record in patent US11021463B2, “Therapeutic inhibitory compounds” (Attune Pharmaceuticals, Inc., priority 2013, dated 2021).

pIC50: −log10 of the molar value.

This test has as its target human plasma kallikrein (Homo sapiens (Human), UniProt P03952). Briefly: In vitro enzyme inhibition of human plasma kallikrein (Pro-Phe-Arg-AMC cleavage). In kind it is biochemical. The conditions noted are these: human Plasma Kallikrein (Abcam), Pro-Phe-Arg-AMC substrate, 37° C., pH 7.5; read-out: hPK IC50. How it is done: The ability of the compounds disclosed herein to inhibit human plasma kallikrein activity was quantified according to the procedures below.
A 10 mM solution of the test compound was made in DMSO. […] A control tube containing only DMSO is included. 16 μL of each compound test solution was combined with 384 μL of assay buffer (50 mM Tris-HCl pH 7.5, 150 mM NaCl, 0.01% Triton X-100) to yield a “4× test compound buffer stock”.
These solutions are hereby referred to as 4× hPK and 2×PFR-AMC, respectively.
50 μL was removed from this mixture and placed into duplicate wells on a Microfluor 1Black U-bottom microtiter plate (Thermo Scientific). This plate was incubated for 5 minutes at 37° C. To each well, 50 μL of pre-warmed 2×PFR-AMC was added to start the enzymatic reaction. Cleavage of PFR-AMC was monitored in a Biotek Synergy H4 reader set at 37° C. Readings are taken every 43 seconds for 1 hour. […] The IC50 is calculated using the Gen5 (Biotek Instruments).
The ability of the compounds in Table 3 to inhibit human plasma kallikrein activity was determined.

Sequence of human plasma kallikrein (P03952 391-638 limits assumed): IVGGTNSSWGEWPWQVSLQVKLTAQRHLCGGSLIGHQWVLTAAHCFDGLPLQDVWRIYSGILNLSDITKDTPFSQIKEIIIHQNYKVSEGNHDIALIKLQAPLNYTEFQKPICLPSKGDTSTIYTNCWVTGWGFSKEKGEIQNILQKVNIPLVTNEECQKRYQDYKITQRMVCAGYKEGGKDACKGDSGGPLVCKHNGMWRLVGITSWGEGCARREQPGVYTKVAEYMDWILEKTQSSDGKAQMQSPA
Sequence of human plasma kallikrein (P03952 20-390 partner limits assumed): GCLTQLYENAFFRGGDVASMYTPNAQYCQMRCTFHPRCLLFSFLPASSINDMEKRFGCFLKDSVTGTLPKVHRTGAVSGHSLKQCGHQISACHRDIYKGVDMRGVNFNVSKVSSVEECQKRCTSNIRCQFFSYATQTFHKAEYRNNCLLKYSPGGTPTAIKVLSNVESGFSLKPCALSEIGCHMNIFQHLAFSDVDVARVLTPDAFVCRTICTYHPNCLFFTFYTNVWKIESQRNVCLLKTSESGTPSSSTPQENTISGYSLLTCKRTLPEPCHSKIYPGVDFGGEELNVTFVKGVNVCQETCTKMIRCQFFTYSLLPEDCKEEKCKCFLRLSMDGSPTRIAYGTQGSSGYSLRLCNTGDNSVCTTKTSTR

For “N-((6-amino-2,4-dimethylpyridin-3-yl)methyl)-2-((5-methyl-3a,7a-dihydro-1H-indazol-1-yl)methyl)isonicotinamide [Example 108]”, the pIC50 was greater than 7.00.

By pIC50 is commonly meant the IC50 on a negative log10 scale, so that one unit is a factor of ten.
